According to paper PMC9124818 (Pharmacology Research & Perspectives, 2022):

Experiments:
[1] = target: T1, CYP1A2 (Homo sapiens, UniProt P05177); conditions: ref 35 von Moltke et al.; cited from earlier work
T1 sequence (P05177 1-516): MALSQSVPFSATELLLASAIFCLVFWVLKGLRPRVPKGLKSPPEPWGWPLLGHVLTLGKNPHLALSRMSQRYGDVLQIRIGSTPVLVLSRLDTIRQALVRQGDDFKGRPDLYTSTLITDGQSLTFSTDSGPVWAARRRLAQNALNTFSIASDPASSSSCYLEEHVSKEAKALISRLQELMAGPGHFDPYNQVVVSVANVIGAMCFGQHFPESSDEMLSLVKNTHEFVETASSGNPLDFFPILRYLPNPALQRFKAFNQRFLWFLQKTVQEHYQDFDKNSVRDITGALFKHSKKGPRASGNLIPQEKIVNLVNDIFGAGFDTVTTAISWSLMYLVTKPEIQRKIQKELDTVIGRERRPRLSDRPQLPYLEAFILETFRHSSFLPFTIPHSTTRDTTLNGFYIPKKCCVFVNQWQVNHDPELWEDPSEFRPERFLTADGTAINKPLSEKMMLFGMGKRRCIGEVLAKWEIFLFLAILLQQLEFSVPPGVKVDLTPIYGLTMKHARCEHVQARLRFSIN

[2] = system: CYP3A; conditions: ref 35 von Moltke et al.; cited from earlier work
[3] = target: CYP2D6 (Homo sapiens, UniProt P10635); conditions: CYP2D6‐dependent dextromethorphan O‐demethylation; ref 35 von Moltke et al.; cited from earlier work
Sequence of CYP2D6 (P10635 whole entry): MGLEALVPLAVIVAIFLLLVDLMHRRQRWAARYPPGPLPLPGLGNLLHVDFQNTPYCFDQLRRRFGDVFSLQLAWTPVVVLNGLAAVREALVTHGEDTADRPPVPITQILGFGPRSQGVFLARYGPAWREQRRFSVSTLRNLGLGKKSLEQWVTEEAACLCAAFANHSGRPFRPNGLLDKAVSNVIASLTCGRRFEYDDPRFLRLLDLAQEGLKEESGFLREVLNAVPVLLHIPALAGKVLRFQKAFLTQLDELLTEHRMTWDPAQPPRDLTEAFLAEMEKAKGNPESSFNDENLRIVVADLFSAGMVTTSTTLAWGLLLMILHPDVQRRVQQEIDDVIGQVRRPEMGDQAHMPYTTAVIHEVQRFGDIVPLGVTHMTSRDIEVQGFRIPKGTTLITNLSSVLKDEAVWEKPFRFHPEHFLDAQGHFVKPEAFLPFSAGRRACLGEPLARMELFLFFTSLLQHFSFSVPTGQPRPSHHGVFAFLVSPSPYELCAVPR

[4] = target: CYP2C9 (Homo sapiens, UniProt P11712); conditions: ref 35 von Moltke et al.; cited from earlier work
Sequence of CYP2C9 (P11712 whole entry): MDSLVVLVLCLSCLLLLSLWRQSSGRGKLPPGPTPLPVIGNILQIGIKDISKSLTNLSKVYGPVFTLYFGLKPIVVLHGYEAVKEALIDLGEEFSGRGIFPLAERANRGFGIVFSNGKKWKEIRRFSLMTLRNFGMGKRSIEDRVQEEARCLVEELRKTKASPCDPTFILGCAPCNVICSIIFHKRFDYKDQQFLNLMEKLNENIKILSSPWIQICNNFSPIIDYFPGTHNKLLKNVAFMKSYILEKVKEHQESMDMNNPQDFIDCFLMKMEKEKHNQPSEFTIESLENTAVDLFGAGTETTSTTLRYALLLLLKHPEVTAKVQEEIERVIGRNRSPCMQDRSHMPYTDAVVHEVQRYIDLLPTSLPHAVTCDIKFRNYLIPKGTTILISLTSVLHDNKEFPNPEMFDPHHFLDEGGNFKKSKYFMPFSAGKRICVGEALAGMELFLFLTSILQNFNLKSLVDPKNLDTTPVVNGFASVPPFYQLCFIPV

[5] = system: CYP1A2 mRNA; assay: CYP450 induction in cultured human hepatocytes, mRNA by qRT-PCR; format: cell-based; conditions: human, hepatocytes, 3 days, 50 μM
Procedure: Each PCR was performed in triplicate.

Compound | inhibitor potential [1] | inhibitor potential [2] | IC50 [3] [µM] | inhibitor potential [4] | increase in CYP1A2 mRNA levels [5]
CCN[C@@H](C)Cc1cccc(C(F)(F)F)c1 [D‐FFA] | weak or negligible inhibitor potential | weak or negligible inhibitor potential | 15.1 | weak or negligible inhibitor potential | 
CCN[C@H](C)Cc1cccc(C(F)(F)F)c1 [L‐FFA] | weak or negligible inhibitor potential | weak or negligible inhibitor potential | 15.1 | weak or negligible inhibitor potential | 
COc1ccc2[nH]c([S+]([O-])Cc3ncc(C)c(OC)c3C)nc2c1 (stereo not drawn) [Omeprazole, omeprazole, reference compound] |  |  |  |  | 32.7-52.5 fold
